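These data come from cells grown in 96-well plates and exposed to compound for 48 hours at five concentrations. GI50 marks 50% less growth. TGI: concentration producing complete growth inhibition.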

Results on twelve compounds are retold here after PubChem BioAssay (NCI).

Among the test systems are HCT-116 colon; HCT-15 colon; HOP-92 NSCLC; KM12 colon; MALME-3M melanoma; SF-539 CNS; SR leukemia; T-47D breast; UACC-257 melanoma; UACC-62 melanoma.
Holding throughout (experiment): NCI-60 cell line screen, 48 h

For `C=C1CC[C@@H](C(C)C)C[C@@H]2[C@H]([C@H](O)C[C@]2(C)O)[C@@]2(C)CC[C@@H]1O2`, the GI50 in the assay on HCT-116 colon is 16.7 µM; with HCT-15 colon it was 14.6 µM; with HOP-92 NSCLC it was 6.84 µM; in the assay with KM12 colon it was 16.2 µM; with MALME-3M melanoma, 14.1 µM; in the assay with SF-539 CNS, 24400 nM. In addition, the results for the GI50 with SR leukemia, in the assay with T-47D breast and in the assay with UACC-257 melanoma were 14.2 µM, 14.9 µM and 16.2 µM, respectively. Besides, the TGI was determined as 30.3 µM with HCT-116 colon; 27.7 µM in the assay with HCT-15 colon; 20.7 µM with HOP-92 NSCLC; 32 µM with KM12 colon; 28.6 µM in the assay with MALME-3M melanoma; 43.3 µM in the assay with SF-539 CNS. Also, the TGI in the assay on SR leukemia amounted to 30.9 µM; in the assay with T-47D breast, 33.1 µM; with UACC-257 melanoma it was 31.3 µM.
On to `CO/N=C(/C)c1cccc(Nc2cc(-c3ccccc3)nc3ccc(OC)cc23)c1`, for which the GI50 with HCT-116 colon is 4.25 µM; in the assay on HCT-15 colon, 14.9 µM; in the assay with HOP-92 NSCLC it was 2.55 µM; in the assay on MALME-3M melanoma, 2.45 µM; with SF-539 CNS, 2450 nM; in the assay on T-47D breast it was 71 µM. The results for the GI50 with UACC-257 melanoma and with UACC-62 melanoma were 18.4 µM and 4.33 µM, respectively. In addition, the TGI in the assay on HCT-116 colon is 18.4 µM; in the assay with HCT-15 colon, 41.1 µM; in the assay with HOP-92 NSCLC it was 8.55 µM; in the assay on MALME-3M melanoma, 7.78 µM; in the assay with SF-539 CNS it was 4.89 µM; in the assay on T-47D breast, > 100 µM. In addition, the TGI with UACC-257 melanoma is 43.2 µM; in the assay with UACC-62 melanoma it was 17.7 µM.
`O=C1C(Cl)=C(Nc2ccccc2O)C(=O)N1Cc1ccccc1`: the GI50 in the assay on HCT-116 colon is 19.6 µM; with HCT-15 colon it was 19.5 µM; in the assay with HOP-92 NSCLC, 21.4 µM; with KM12 colon, 17.8 µM; in the assay with MALME-3M melanoma, 22.8 µM; in the assay with SR leukemia it was 51.7 µM. Further, the figures for the GI50 in the assay with T-47D breast and in the assay with UACC-62 melanoma were 23.3 µM and 19.1 µM, respectively. Further, the TGI was 33.7 µM with HCT-116 colon; 39.9 µM in the assay on HCT-15 colon; 48.3 µM in the assay on HOP-92 NSCLC; 36.2 µM with KM12 colon; 40.4 µM with MALME-3M melanoma; > 100 µM in the assay on SR leukemia. Moreover, the TGI came to 52.7 µM in the assay on T-47D breast and 46.4 µM with UACC-62 melanoma.
On to `O/C(=C\c1nc2ccccc2nc1NC12CC3CC(CC(C3)C1)C2)c1ccc(Br)cc1`, for which the TGI in the assay on HCT-116 colon, with HCT-15 colon, in the assay with KM12 colon, in the assay on MALME-3M melanoma, in the assay with SF-539 CNS and in the assay with T-47D breast was > 10 µM in each case. Also, the TGI in the assay with UACC-257 melanoma and with UACC-62 melanoma was > 10 µM throughout.
Turning to `Nc1ccc2[nH]cc(CCC(=O)O)c2c1`, the TGI in the assay with HCT-116 colon, in the assay on HCT-15 colon, in the assay with KM12 colon, with MALME-3M melanoma, in the assay on SF-539 CNS and in the assay with T-47D breast was > 100 µM each time. In addition, the TGI with UACC-257 melanoma and in the assay with UACC-62 melanoma was > 100 µM throughout.
For the compound `C=CCN1CC2CON(C(=O)C(OC)(c3ccccc3)C(F)(F)F)C2C1C(C)C` (centres undefined), the GI50 was 24.2 µg/mL with HCT-116 colon; 35.6 µg/mL with HCT-15 colon; 36.2 µg/mL with KM12 colon; 20 µg/mL in the assay with MALME-3M melanoma; 66.5 µg/mL with SF-539 CNS; 11.1 µg/mL in the assay with SR leukemia. Also, the GI50 in the assay on T-47D breast is 34.5 µg/mL; in the assay with UACC-62 melanoma, 45.1 µg/mL. Further, the TGI stood at 54.5 µg/mL in the assay with MALME-3M melanoma and 65.1 µg/mL in the assay on SR leukemia.
In the case of `CCC(=O)Nc1ccc(N=NN(C)C)cc1`, the TGI is > 100 µM with HCT-116 colon; > 100 µM with HCT-15 colon; 90.2 µM in the assay on HOP-92 NSCLC; > 100 µM with MALME-3M melanoma; > 100 µM in the assay with SF-539 CNS; 30.4 µM with T-47D breast. The TGI with UACC-257 melanoma and in the assay with UACC-62 melanoma was > 100 µM throughout.
As for `CC(O)CC(O)(C(F)(F)F)C(F)(F)F` (centres undefined), the TGI in the assay on HCT-116 colon, in the assay with HCT-15 colon, with KM12 colon, in the assay on MALME-3M melanoma, with SF-539 CNS and in the assay on SR leukemia was > 10 µM each time. Further, the TGI in the assay on T-47D breast, in the assay with UACC-257 melanoma and with UACC-62 melanoma was > 10 µM in each case.
Regarding `Cc1ccc(S(=O)(=O)NC(=O)NC2=NC(C)(C)N(c3ccc(Cl)c(Cl)c3)C(N)=N2)cc1`, the TGI in the assay with HCT-116 colon, in the assay with HCT-15 colon, in the assay on KM12 colon, in the assay on MALME-3M melanoma, in the assay with SF-539 CNS and in the assay with SR leukemia was > 100 µM in each case. The TGI in the assay on T-47D breast, in the assay on UACC-257 melanoma and in the assay on UACC-62 melanoma was > 100 µM in each case.
As for `CC1=CC(=O)C(C(O)(C(F)(F)F)C(F)(F)F)C(C)(C)C1` (centres undefined), the TGI with HCT-116 colon, in the assay on HCT-15 colon, with KM12 colon, in the assay with MALME-3M melanoma, in the assay on SF-539 CNS and with SR leukemia was > 10 µM in each case. In addition, the TGI with T-47D breast, with UACC-257 melanoma and in the assay with UACC-62 melanoma was > 10 µM throughout.
For the compound `Nc1nc(N)c2cc(CNc3ccc(C(=O)NC(CC(=O)O)C(=O)O)c(Cl)c3)ccc2n1` (centres undefined), the GI50 was 0.05 µM in the assay with HCT-116 colon; 0.05 µM in the assay with HCT-15 colon; > 500 µM in the assay on MALME-3M melanoma; 50 nM with SF-539 CNS; 0.05 µM with UACC-62 melanoma. Further, the TGI in the assay with HCT-116 colon, in the assay with HCT-15 colon, with KM12 colon, with MALME-3M melanoma, in the assay with SF-539 CNS and with SR leukemia was > 500 µM each time. In addition, the TGI in the assay on T-47D breast and in the assay with UACC-62 melanoma was > 500 µM in each case.
With `Clc1cc(Cl)cc(Nc2ccc3cc(OCCCN4CCOCC4)ccc3n2)c1`, the GI50 in the assay with HCT-15 colon is 1.47 µM; in the assay on HOP-92 NSCLC, 1.63 µM; with KM12 colon, 2.23 µM; in the assay on T-47D breast it was 3.01 µM; in the assay with UACC-257 melanoma, 1.96 µM. The TGI in the assay with HCT-15 colon is 4.15 µM; with HOP-92 NSCLC, 5.01 µM; in the assay with KM12 colon, 5.4 µM; with T-47D breast, 14.1 µM; in the assay on UACC-257 melanoma it was 4.34 µM.
